Measurements published in patent US20230133251A1, “ADMINISTRATION OF mTOR INHIBITORS INTO THE CENTRAL NERVOUS SYSTEM” (priority 2020, published 2023).

Tests used:
[1] = tested on: HeLa cells; assay: MTT proliferation assay, activity of stored everolimus samples; assay type: cell-based; conditions: for day of drastic decrease in anti-proliferative activity: tested at 5 nM
Protocol: (§1) Both HeLa cells (cervical cancer cell line) and SH-SY5Y cells (neuroblastoma cell line) were obtained from the American Type Culture Collection (Manassas, Va., USA) and cultured in Dulbecco's Modified Eagle's medium (DMEM with L-glutamine) supplemented with 10% (v/v) heat-inactivated foetal bovine serum (FBS), 100 U of penicillin, 100 U of streptomycin in a 5% CO2 humidified incubator at 37° C. Cell viability was verified with the standard Trypan Blue method.
(§2) The activity of everolimus in organic solution and in the micelles was determined by evaluating cell proliferation after the treatment. Briefly, the HeLa and SH-SY5Y cells were seeded in a 96-well plate at a concentration of 3000 cells/well and 6000 cells/well, respectively, and were maintained in the culture medium (100 μl) for 24 hours. After incubation at 37, 25 and 4° C. for 7, 14, 35, 50 and 77 days, the samples were suspended in the cell culture medium at a final concentration of 5 nM. Untreated cells, cells treated with a 10% v/v DMSO/saline solution (Veh) and empty micelles in saline solution, both diluted in a manner equivalent to the drug, were analysed as controls. A freshly prepared everolimus solution was used as the reference standard. Cell proliferation was evaluated using the 3-[4,5-dimethylthiazol-2-yl]-2,5-diphenyltetrazolium (MTT) assay (Sigma-Aldrich) according to the manufacturer's manual. The cells were mixed with 10 μl of MTT (0.5 mg/ml) and kept in a humidified incubator at 37° C. for 4 hours. Subsequently, 100 μl of a solubilisation solution (10% SDS with 0.01 N HCl) were added to each well. Formazan crystal solubilisation was carried out overnight in an incubator a 37° C. The next day, cell proliferation was evaluated by means of spectrophotometric readings taken with a Beckman Coulter DTX 880 multimode detector (Beckman Coulter Inc., Brea, Calif., USA) using a line at 589 nm and reference at 650 nm.
(§3) In order to correlate the stability of everolimus with the preservation of activity, samples incubated under the same conditions as in the stability study were dosed in HeLa and SH-SY5Y cells at established points in time. For this test the cell lines were seeded and maintained for 24 hours at 37° C. prior to treatment. […] The activity of the solution, by contrast, began to wane at 35 days, confirming a prolonged effect of inhibition of the micelles on cell proliferation. […] In order to better quantify the differences among the various samples in terms of the residual activity of everolimus, the residual anti-proliferative activity was calculated and is shown in FIGS. 3A and 3B.

[2] = tested on: SH-SY5Y cells; assay: as above; assay type: cell-based; conditions: for day of drastic decrease in anti-proliferative activity: tested at 5 nM
Protocol: as §1, §2, §3

[3] = Evaluation of stability by HPLC analysis of everolimus samples stored at 37, 25 and 4° C.; assay type: physicochemical
Protocol: Everolimus (Selleck Chemicals, Aurogene, Rome, Italy) was dissolved in DMSO (VWR, Milan, Italy) at a concentration of 1 mg/ml. The everolimus solution was subsequently diluted in 10% v/v DMSO/saline solution until obtaining a final concentration of 10 μg/ml. The resulting solution was then incubated at 4, 25 and 37° C.
Carefully weighed amounts of everolimus and distearoylphosphoethanolam ine-polyethylene glycol 2000 (DSPE-PEG2000, Lipoid, Switzerland) were dissolved in 3 ml of chloroform (Sigma-Aldrich, Milan, Italy) in a 50 ml flask. The solvent was removed by light evaporation at room temperature under a flow of nitrogen and vacuum dried for 1 hour to eliminate residual traces. The thin film obtained was reconstituted in an exact volume (3 mL) of aqueous medium. After complete reconstitution a clear micellar dispersion was obtained. The dispersion was then incubated at 4, 25 and 37° C.
The drug was quantified using the HPLC method. Briefly, the instrument used is a Portlab STAYER HPLC system equipped with a UV detector, a parallel pump and Triathlon autosampler (Portlab, Rome, Italy). The conditions used are the following: isocratic mode with acetonitrile:water (60:40, v/v) eluted at 0.8 ml/min and a Zorbax C8 column, 4.6 mm ID×250 mm, 5 μm (Agilent, Milan, Italy) equilibrated at 55° C. UV detection was performed at 278 nm. A calibration curve was constructed in the concentration interval of 0.62-10 μg/mL (r^2=0.9992).
The samples of solution were injected directly (injection volume 15 μL), whereas the micellar suspension was diluted 200 times in DMSO before being subjected to analysis. In order to reduce the carryover effects and an excessive accumulation of lipids in the column, samples of solution and micelles were injected alternately. The column was periodically washed with chloroform and methanol to avoid the accumulation of lipids and impairment of performance. All measurements were performed in triplicate and the results were expressed as the mean±D.S.

**Q.** With `CO[C@H]1C[C@@H]2CC[C@@H](C)[C@@](O)(O2)C(=O)C(=O)N2CCCC[C@H]2C(=O)O[C@H]([C@H](C)C[C@@H]2CC[C@@H](OCCO)[C@H](OC)C2)CC(=O)[C@H](C)/C=C(\C)[C@@H](O)[C@@H](OC)C(=O)[C@H](C)C[C@H](C)/C=C/C=C/C=C/1C` [solution, Everolimus] as the molecule, how does the “day at which activity began to wane” value ([1]; 5 nM) read?
**A.** The value was 35 days.

**Q.** What about the “day of drastic decrease in anti-proliferative activity” value (shortened to “day of drastic decrease”) ([1]; sample stored at 4° C.) of the same molecule?
**A.** The value was 50 days.

**Q.** And the “day of drastic decrease” value ([1]; sample stored at 25° C.)?
**A.** Its value is 35 days.

**Q.** And the “day of drastic decrease” value ([1]; sample stored at 37° C.)?
**A.** Its value is 14 days.

**Q.** What about the “day at which activity began to wane” value ([2]; 5 nM) of the same molecule?
**A.** Its value is 35 days.

**Q.** And the “day of drastic decrease” value ([2]; sample stored at 4° C.)?
**A.** The value was 50 days.

**Q.** What about the “day of drastic decrease” value ([2]; sample stored at 25° C.) of the same molecule?
**A.** Its value is 35 days.

**Q.** What about the “day of drastic decrease” value ([2]; sample stored at 37° C.) of the same molecule?
**A.** The value was 14 days.

**Q.** And the “day by which everolimus had decayed (HPLC)” value ([3]; stored at 4° C.)?
**A.** The value was no more than 50 days.

**Q.** And the “day by which everolimus had decayed (HPLC)” value ([3]; stored at 25° C.)?
**A.** The value was no more than 35 days.

**Q.** What about the “day by which everolimus had fallen to zero / decayed (HPLC)” value ([3]; stored at 37° C.) of the same molecule?
**A.** The value was no more than 14 days.
